From patent US20230257385A1, “SALT AND SOLID FORMS OF TABERNANTHALOG” (priority 2021, published 2023)
Structures can show the parent of a compound that is named as a salt.

Test: DVS analyses of sorbate salt Form A / Form C (Example 10)
Assay type: physicochemical
From the text: DVS analyses of Form A (Performed on batch reference: Experiment 11-Sample -A1) To determine whether Form A underwent form change at high % RH, DVS residues of Form A, from 0 to 80% RH and 0 to 90% RH, were examined. The specimens were equilibrated to constant mass, at 80% and 90% RH set-points, removed, placed in a capped vial, and analysed by XRPD and DSC. Based on the SC-XRD at 100 K, no regular voids in the crystal structure were large enough to accommodate non-crystal-bonded, molecular water with minimum probe radius of 1.4 Å.
The moisture sorption properties of the feed API were analysed by DVS Intrinsic instrument (Surface Measurement System). Approximately 20 to 50 mg of API was weighed onto an aluminium pan and loaded into the instrument equilibrated at 25° C. The sample was equilibrated under a dry atmosphere (0% relative humidity) for 60 minutes, before increasing the humidity from 0% to 30% at 5% step increment and from 30% to 90% at 10% step increment. A desorption cycle was also applied from 90% to 30% (10% step decrement) and from 30% to 0% (5% step decrement). A rate of change in mass per time unit (dm/dt) of 0.002%/min was set as the equilibrium parameter. Kinetic and isotherm graphs were calculated.
5. DVS Analyses: 0% to 90% DVS Mass Per Unit Time Equilibrated at Dm/Dt (0.0002%/Min)

Structure (SMILES): COc1ccc2c3c([nH]c2c1)CCN(C)CC3 [tabernanthalog sorbate salt]
- DVS isotherm (0% to 90% DVS, mass per unit time equilibrated at dm/dt (0.0002%/min)): slightly hygroscopic up to 80% RH
- DVS 0 to 90 to 0% RH (dm/dt <0.002%) (RH 0.0, falling leg (90 to 0)): 0.0 (0.06%)
- DVS 0 to 90 to 0% RH (dm/dt <0.002%) (RH 0.0, rising leg (0 to 90)): DVS 0 to 90 to 0% RH (dm/dt <0.002%): 0.0 (0.00%),
- DVS 0 to 90 to 0% RH (dm/dt <0.002%) (RH 5.0, falling leg (90 to 0)): 0.05%
- DVS 0 to 90 to 0% RH (dm/dt <0.002%) (RH 5.0, rising leg (0 to 90)): 0.0%
- DVS 0 to 90 to 0% RH (dm/dt <0.002%) (RH 10.0, falling leg (90 to 0)): 0.04%
- DVS 0 to 90 to 0% RH (dm/dt <0.002%) (RH 10.0, rising leg (0 to 90)): 0.01%
- DVS 0 to 90 to 0% RH (dm/dt <0.002%) (RH 15.0, falling leg (90 to 0)): 0.03%
- DVS 0 to 90 to 0% RH (dm/dt <0.002%) (RH 15.0, rising leg (0 to 90)): 0.01%
- DVS 0 to 90 to 0% RH (dm/dt <0.002%) (RH 20.0, falling leg (90 to 0)): 0.02%
- DVS 0 to 90 to 0% RH (dm/dt <0.002%) (RH 20.0, rising leg (0 to 90)): 0.02%
- DVS 0 to 90 to 0% RH (dm/dt <0.002%) (RH 25.0, falling leg (90 to 0)): 0.00%
- DVS 0 to 90 to 0% RH (dm/dt <0.002%) (RH 25.0, rising leg (0 to 90)): 0.03%
- DVS 0 to 90 to 0% RH (dm/dt <0.002%) (RH 30.0, falling leg (90 to 0)): 0.00%
- DVS 0 to 90 to 0% RH (dm/dt <0.002%) (RH 30.0, rising leg (0 to 90)): 0.03%
- DVS 0 to 90 to 0% RH (dm/dt <0.002%) (RH 40.0, falling leg (90 to 0)): 0.03%
- DVS 0 to 90 to 0% RH (dm/dt <0.002%) (RH 40.0, rising leg (0 to 90)): 0.05%
- DVS 0 to 90 to 0% RH (dm/dt <0.002%) (RH 50.0, falling leg (90 to 0)): 0.06%
- DVS 0 to 90 to 0% RH (dm/dt <0.002%) (RH 50.0, rising leg (0 to 90)): 0.07%
- DVS 0 to 90 to 0% RH (dm/dt <0.002%) (RH 60.0, falling leg (90 to 0)): 0.18%
- DVS 0 to 90 to 0% RH (dm/dt <0.002%) (RH 60.0, rising leg (0 to 90)): 0.10%
- DVS 0 to 90 to 0% RH (dm/dt <0.002%) (RH 70.0, falling leg (90 to 0)): 0.30%
- DVS 0 to 90 to 0% RH (dm/dt <0.002%) (RH 70.0, rising leg (0 to 90)): 0.14%
- DVS 0 to 90 to 0% RH (dm/dt <0.002%) (RH 80.0, falling leg (90 to 0)): 0.48%
- DVS 0 to 90 to 0% RH (dm/dt <0.002%) (RH 80.0, rising leg (0 to 90)): 0.21%
- DVS 0 to 90 to 0% RH (dm/dt <0.002%) (RH 90.0, falling leg (90 to 0)): 0.98%
- DVS 0 to 90 to 0% RH (dm/dt <0.002%) (RH 90.0, rising leg (0 to 90)): 0.98%
- form of specimens retrieved post DVS (XRPD) (at 0%, 80% and 90% RH): consistent with Form A
- water affinity (up to 90% RH (DVS)): ca. 1 % w/w
